In US10556888B2, “Pyrazole compounds or salts thereof, preparation methods therefor, herbicidal compositions and use thereof” (QINGDAO KINGAGROOT CHEMICAL COMPOUNDS CO., LTD, priority 2015, dated 2020):

Key:
[1] = system: Monocotyledonous and dicotyledonous weed; test: Post-emergence test experiment, weed control effect (Table 2); assay type: in vivo; design: key to weed control effect, Setaria viridis (level) / weed control effect, Rorippa indica (level) / weed control effect, Abutilon theophrasti (level) / weed control effect, Echinochloa crus-galli (level) / weed control effect, Digitaria sanguinalis (level): Level 10: completely dead; Level 9: above 90% growth inhibition rate; Level 8: above 80% growth inhibition rate; Level 7: above 70% growth inhibition rate; Level 6: above 60% growth inhibition rate; Level 5: above 50% growth inhibition rate; Level 4: above 30% growth inhibition rate; Level 3: above 20% growth inhibition rate; Level 2: above 10% growth inhibition rate; Level 1: above 1-10% growth inhibition rate; Level 0: no effect; conditions: 3 weeks after spraying, greenhouse
Description: (§1) Post-emergence test experiment: Monocotyledonous and dicotyledonous weed seeds and main crop seeds (i.e. wheat, corn, rice, soybean, cotton, oilseed, millet and sorghum.) were put into a plastic pot loaded with soil. Then covered with 0.5-2 cm soil, the seeds were allowed to grow in good greenhouse environment. The test plants were treated at 2-3 leaf stage 2-3 weeks after sowing. The test compounds of the invention were dissolved with acetone respectively, then added with 80 tween and diluted by certain amount of water to certain concentration. The solution was sprayed to the plants with a sprayer. Then the plants were cultured for 3 weeks in the greenhouse.

[2] = system: main crop (wheat, corn, rice, soybean, cotton, oilseed, millet and sorghum); test: Post-emergence test experiment, main crops (Table 2); assay type: in vivo; design: key: Level 10: completely dead; Level 9: above 90% growth inhibition rate; Level 8: above 80% growth inhibition rate; Level 7: above 70% growth inhibition rate; Level 6: above 60% growth inhibition rate; Level 5: above 50% growth inhibition rate; Level 4: above 30% growth inhibition rate; Level 3: above 20% growth inhibition rate; Level 2: above 10% growth inhibition rate; Level 1: above 1-10% growth inhibition rate; Level 0: no effect; conditions: 3 weeks after spraying, greenhouse
Description: as §1

Structure (SMILES)	weed control effect, Abutilon theophrasti (level) ([1]; 120 g/ha)	weed control effect, Bidens pilosa (level) ([1]; 120 g/ha)	weed control effect, Digitaria sanguinalis (level) ([1]; 120 g/ha)	weed control effect, Echinochloa crus-galli (level) ([1]; 120 g/ha)	weed control effect, Rorippa indica (level) ([1]; 120 g/ha)	weed control effect, Setaria viridis (level) ([1]; 120 g/ha)	effect on crop, corn (level) ([2]; 120 g/ha)	effect on crop, rice (level) ([2]; 120 g/ha)	effect on crop, wheat (level) ([2]; 120 g/ha)	weed control effect, Abutilon theophrasti (level) ([1]; 30 g/ha)	weed control effect, Bidens pilosa (level) ([1]; 30 g/ha)	weed control effect, Digitaria sanguinalis (level) ([1]; 30 g/ha)	weed control effect, Echinochloa crus-galli (level) ([1]; 30 g/ha)	weed control effect, Rorippa indica (level) ([1]; 30 g/ha)	weed control effect, Setaria viridis (level) ([1]; 30 g/ha)	effect on crop, corn (level) ([2]; 30 g/ha)	effect on crop, rice (level) ([2]; 30 g/ha)	effect on crop, wheat (level) ([2]; 30 g/ha)	also measured
Cc1cnn(Cc2c(S(C)(=O)=O)ccc(C(=O)c3cnn(C)c3OC(=O)c3cnn(C)c3)c2Cl)c1 [Compound 17]	6 (Level 6: above 60% growth inhibition rate)	6 (Level 6: above 60% growth inhibition rate)	0	10	4 (Level 4: above 30% growth inhibition rate)	1 (Level 1: above 1-10% growth inhibition rate)	0	0	0	–	–	–	–	–	–	–	–	–	–
Cn1cc(C(=O)Oc2c(C(=O)c3ccc(S(C)(=O)=O)c(Cn4cc(Cl)cn4)c3Cl)c(C3CC3)nn2C)cn1 [Compound 18]	9 (Level 9: above 90% growth inhibition rate)	8 (Level 8: above 80% growth inhibition rate)	4 (Level 4: above 30% growth inhibition rate)	10	10	5 (Level 5: above 50% growth inhibition rate)	0	1 (Level 1: above 1-10% growth inhibition rate)	0	–	–	–	–	–	–	–	–	–	–
Cn1cc(C(=O)Oc2c(C(=O)c3ccc(S(C)(=O)=O)c(Cn4cccn4)c3Cl)c(C3CC3)nn2C)cn1 [Compound 19]	–	–	–	–	–	–	–	–	–	–	–	–	–	–	–	–	–	–	weed control effect, Abutilon theophrasti (level) ([1]; 60 g/ha): 10; weed control effect, Bidens pilosa (level) ([1]; 60 g/ha): 8 (Level 8: above 80% growth inhibition rate); weed control effect, Digitaria sanguinalis (level) ([1]; 60 g/ha): 10; weed control effect, Echinochloa crus-galli (level) ([1]; 60 g/ha): 10; weed control effect, Rorippa indica (level) ([1]; 60 g/ha): 10; weed control effect, Setaria viridis (level) ([1]; 60 g/ha): 8 (Level 8: above 80% growth inhibition rate); effect on crop, corn (level) ([2]; 60 g/ha): 0; effect on crop, rice (level) ([2]; 60 g/ha): 1 (Level 1: above 1-10% growth inhibition rate); effect on crop, wheat (level) ([2]; 60 g/ha): 0
Cc1cc(C)n(Cc2c(S(C)(=O)=O)ccc(C(=O)c3c(C4CC4)nn(C)c3OC(=O)c3cnn(C)c3)c2Cl)n1 [Compound 20]	6 (Level 6: above 60% growth inhibition rate)	6 (Level 6: above 60% growth inhibition rate)	1 (Level 1: above 1-10% growth inhibition rate)	10	4 (Level 4: above 30% growth inhibition rate)	5 (Level 5: above 50% growth inhibition rate)	0	0	0	–	–	–	–	–	–	–	–	–	–
Cc1ccn(Cc2c(S(C)(=O)=O)ccc(C(=O)c3c(C4CC4)nn(C)c3OC(=O)c3cnn(C)c3)c2Cl)n1 [Compound 21]	6 (Level 6: above 60% growth inhibition rate)	6 (Level 6: above 60% growth inhibition rate)	1 (Level 1: above 1-10% growth inhibition rate)	10	4 (Level 4: above 30% growth inhibition rate)	3 (Level 3: above 20% growth inhibition rate)	0	0	0	–	–	–	–	–	–	–	–	–	–
Cc1cnn(Cc2c(S(C)(=O)=O)ccc(C(=O)c3c(C4CC4)nn(C)c3OC(=O)c3cnn(C)c3)c2Cl)c1 [Compound 22]	6 (Level 6: above 60% growth inhibition rate)	6 (Level 6: above 60% growth inhibition rate)	1 (Level 1: above 1-10% growth inhibition rate)	10	4 (Level 4: above 30% growth inhibition rate)	3 (Level 3: above 20% growth inhibition rate)	0	0	0	–	–	–	–	–	–	–	–	–	–
CCOc1c(C(=O)Oc2c(C(=O)c3ccc(S(C)(=O)=O)c(Cn4cc(C)cn4)c3Cl)cnn2C)cnn1C [Compound 23]	6 (Level 6: above 60% growth inhibition rate)	6 (Level 6: above 60% growth inhibition rate)	1 (Level 1: above 1-10% growth inhibition rate)	10	4 (Level 4: above 30% growth inhibition rate)	3 (Level 3: above 20% growth inhibition rate)	0	0	0	–	–	–	–	–	–	–	–	–	–
Cc1nn(C)cc1C(=O)Oc1c(C(=O)c2ccc(S(C)(=O)=O)c(COCC(F)F)c2Cl)c(C)nn1C [Compound 25]	–	–	–	–	–	–	–	–	–	7 (Level 7: above 70% growth inhibition rate)	7 (Level 7: above 70% growth inhibition rate)	10	10	5 (Level 5: above 50% growth inhibition rate)	9 (Level 9: above 90% growth inhibition rate)	0	6 (Level 6: above 60% growth inhibition rate)	0	–
CCOCc1c(S(C)(=O)=O)ccc(C(=O)c2c(C)nn(C)c2OC(=O)c2cn(C)nc2C)c1Cl [Compound 27]	–	–	–	–	–	–	–	–	–	7 (Level 7: above 70% growth inhibition rate)	7 (Level 7: above 70% growth inhibition rate)	7 (Level 7: above 70% growth inhibition rate)	9 (Level 9: above 90% growth inhibition rate)	5 (Level 5: above 50% growth inhibition rate)	6 (Level 6: above 60% growth inhibition rate)	0	6 (Level 6: above 60% growth inhibition rate)	0	–
COCCOCc1c(S(C)(=O)=O)ccc(C(=O)c2c(C)nn(C)c2OC(=O)c2cn(C)nc2C)c1Cl [Compound 28]	–	–	–	–	–	–	–	–	–	7 (Level 7: above 70% growth inhibition rate)	7 (Level 7: above 70% growth inhibition rate)	7 (Level 7: above 70% growth inhibition rate)	9 (Level 9: above 90% growth inhibition rate)	5 (Level 5: above 50% growth inhibition rate)	5 (Level 5: above 50% growth inhibition rate)	0	6 (Level 6: above 60% growth inhibition rate)	0	–
CCc1nn(C)c(OC(=O)c2cn(C)nc2C)c1C(=O)c1ccc(S(C)(=O)=O)c(Cn2nc(C)cc2C)c1Cl [Compound 30]	6 (Level 6: above 60% growth inhibition rate)	6 (Level 6: above 60% growth inhibition rate)	4 (Level 4: above 30% growth inhibition rate)	8 (Level 8: above 80% growth inhibition rate)	4 (Level 4: above 30% growth inhibition rate)	10	0	0	0	–	–	–	–	–	–	–	–	–	–
CCOCc1c(S(C)(=O)=O)ccc(C(=O)c2c(CC)nn(C)c2OC(=O)c2cn(C)nc2C)c1Cl [Compound 31]	–	–	–	–	–	–	–	–	–	7 (Level 7: above 70% growth inhibition rate)	7 (Level 7: above 70% growth inhibition rate)	10	10	5 (Level 5: above 50% growth inhibition rate)	9 (Level 9: above 90% growth inhibition rate)	0	5 (Level 5: above 50% growth inhibition rate)	0	–
CCc1nn(C)c(OC(=O)c2cn(C)nc2C)c1C(=O)c1ccc(S(C)(=O)=O)c(COCC(F)(F)F)c1Cl [Compound 32]	–	–	–	–	–	–	–	–	–	7 (Level 7: above 70% growth inhibition rate)	7 (Level 7: above 70% growth inhibition rate)	10	10	5 (Level 5: above 50% growth inhibition rate)	10	1 (Level 1: above 1-10% growth inhibition rate)	5 (Level 5: above 50% growth inhibition rate)	0	–
